Earlier results in patent publication US11154558B2, “Prevention of atherosclerotic events with direct factor Xa inhibitors” (Adams Pharmaceuticals LLC, priority 2016, dated 2021).
Where two headings read alike, the source gives them in different places.

What was measured:
hERG = hERG (Homo sapiens, UniProt Q12809)
[1] = human, in vivo
[2] = human, in vivo; remark: listed apart in the source
[3] = usual dose about 15 mg to about 20 mg per day
[4] = tested on: atherosclerotic plaques in ApoE^−/−mice
[5] = ApoE−/− mice treated with rivaroxaban

hERG, sequence (Q12809 whole entry): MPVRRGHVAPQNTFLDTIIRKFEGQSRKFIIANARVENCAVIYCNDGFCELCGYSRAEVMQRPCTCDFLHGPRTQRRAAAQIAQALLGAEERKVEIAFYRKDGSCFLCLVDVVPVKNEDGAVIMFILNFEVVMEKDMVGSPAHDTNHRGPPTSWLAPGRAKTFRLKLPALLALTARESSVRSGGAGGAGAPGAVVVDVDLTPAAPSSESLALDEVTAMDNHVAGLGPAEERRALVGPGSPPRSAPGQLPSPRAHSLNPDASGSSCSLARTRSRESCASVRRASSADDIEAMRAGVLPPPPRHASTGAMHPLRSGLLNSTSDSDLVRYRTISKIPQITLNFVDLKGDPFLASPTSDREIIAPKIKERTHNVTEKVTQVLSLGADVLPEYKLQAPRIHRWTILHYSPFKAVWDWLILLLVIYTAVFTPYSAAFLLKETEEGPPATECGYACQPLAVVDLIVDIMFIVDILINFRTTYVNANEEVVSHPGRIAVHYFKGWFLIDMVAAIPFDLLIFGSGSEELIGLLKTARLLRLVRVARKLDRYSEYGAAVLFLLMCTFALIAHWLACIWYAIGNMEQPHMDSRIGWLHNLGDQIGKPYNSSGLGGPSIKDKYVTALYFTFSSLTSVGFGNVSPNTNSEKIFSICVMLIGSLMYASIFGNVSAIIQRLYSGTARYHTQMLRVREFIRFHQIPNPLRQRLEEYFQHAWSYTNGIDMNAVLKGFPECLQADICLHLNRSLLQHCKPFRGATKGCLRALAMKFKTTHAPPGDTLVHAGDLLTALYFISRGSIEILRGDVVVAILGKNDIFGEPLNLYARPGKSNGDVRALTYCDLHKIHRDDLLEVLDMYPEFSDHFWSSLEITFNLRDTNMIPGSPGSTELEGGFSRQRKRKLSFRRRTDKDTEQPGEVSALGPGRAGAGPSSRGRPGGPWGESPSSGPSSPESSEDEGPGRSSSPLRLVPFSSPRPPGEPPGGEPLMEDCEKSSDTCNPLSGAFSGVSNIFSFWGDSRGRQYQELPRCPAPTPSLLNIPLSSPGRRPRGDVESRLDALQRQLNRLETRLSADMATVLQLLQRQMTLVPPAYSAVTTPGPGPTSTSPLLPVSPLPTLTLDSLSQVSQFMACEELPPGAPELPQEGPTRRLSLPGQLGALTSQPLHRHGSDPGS

In the case of `COc1ccc(NC(=O)c2ccc(C(=N)N(C)C)cc2)c(C(=O)Nc2ccc(Cl)cn2)c1` [Betrixaban], the hERG affinity (hERG) is listed as “low hERG affinity”.
In the case of `COc1ccc(-n2nc(C(N)=O)c3c2C(=O)N(c2ccc(N4CCCCC4=O)cc2)CC3)cc1` [apixaban], the “direct effect on platelet aggregation” value (platelet aggregation) is given as “no direct effect on platelet aggregation”, the “prevalence of major bleeding versus placebo” value [1] is given as “no increased prevalence of major bleeding” and the “patients affected by bleeding (major bleeding events)” value [2] is given as 1.7%.
For `O=C(NC[C@H]1CN(c2ccc(N3CCOCC3=O)cc2)C(=O)O1)c1ccc(Cl)s1` [rivaroxaban], the “risk of a major bleeding event” value ([3]; one reported study) is listed as 4.3%, the “risk of a major bleeding event” value ([3]; second study) is listed as 1.7% and the “direct effect on platelet aggregation” value (platelet aggregation) is listed as “no direct effect on platelet aggregation”. The “accumulation of macrophages in plaques” value [4, 5] was “reduced accumulation”, the “atherosclerotic plaque stability and plaque progression” value [4, 5] was “stabilized atherosclerotic plaques and attenuated plaque progression” and the “collagen contents in atherosclerotic plaques” value [4, 5] was “increased collagen contents”. For the same molecule, the “expression of matrix metallopeptidase-9 (MMP-9)” value [4, 5] was “decreased expression”, the “lipid deposition in plaques” value [4, 5] was “decreased lipid deposition” and the “plasma levels of FXa or thrombin antithrombin” value ([4]; ApoE−/− mice, administration of rivaroxaban) was “did not change”.
